Tests used:
hMeprin α = target: T1, hMeprin α (Homo sapiens, UniProt Q16819); test: Enzymatic assay, quenched peptide substrate cleavage, method B; format: biochemical; conditions: geometric mean (geometric SD factor in parentheses); for Ki: Morrison's equation, read-out: Meprin alpha Ki(app); for IC50: read-out: Meprin alpha IC50
T1 sequence (Q16819 66-746): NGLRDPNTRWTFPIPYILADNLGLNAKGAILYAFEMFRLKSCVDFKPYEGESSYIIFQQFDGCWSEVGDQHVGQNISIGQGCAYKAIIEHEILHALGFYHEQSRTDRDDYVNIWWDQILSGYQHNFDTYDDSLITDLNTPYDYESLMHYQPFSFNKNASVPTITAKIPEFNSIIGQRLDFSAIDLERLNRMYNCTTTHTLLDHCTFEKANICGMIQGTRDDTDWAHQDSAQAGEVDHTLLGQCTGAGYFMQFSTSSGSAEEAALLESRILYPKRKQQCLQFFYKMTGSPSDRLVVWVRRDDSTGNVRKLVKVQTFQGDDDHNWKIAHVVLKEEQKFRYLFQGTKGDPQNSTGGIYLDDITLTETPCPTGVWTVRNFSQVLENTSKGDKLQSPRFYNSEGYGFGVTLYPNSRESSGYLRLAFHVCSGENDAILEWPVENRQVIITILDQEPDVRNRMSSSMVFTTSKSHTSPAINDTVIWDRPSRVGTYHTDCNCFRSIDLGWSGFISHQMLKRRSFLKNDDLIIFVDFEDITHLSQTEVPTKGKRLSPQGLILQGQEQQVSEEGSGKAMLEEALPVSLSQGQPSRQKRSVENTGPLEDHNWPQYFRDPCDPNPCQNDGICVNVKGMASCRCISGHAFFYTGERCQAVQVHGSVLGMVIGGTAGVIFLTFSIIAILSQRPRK
Experimental: (§1) The determination of enzymatic activity was based on the cleavage of internally quenched peptide substrates. A typical assay of 250 μl total volume measured in black 96 well plates consisted of 100 μl buffer, 50 μl enzyme at a final concentration of 5e-8 M to 2e-10 M, 50 μl substrate (0.15 to 80 μM, in buffer, 0.5% DMSO) and 50 μl inhibitor solution (in buffer, 1% DMSO). In case of 125 μl assay volume (black 96 half area well plates) all volumes were cut in half. Enzymatic activity of ADAMs was measured in 384 well plates with 60 μl total assay volume consisting of 20 μl inhibitor, 20 μl buffer, 10 μl enzyme and 10 μl substrate.
(§2) Based on method B Ki^(app) values were determined using Morrison's equation. All measurements were performed using a fluorescence plate reader (FLUOSTAR OPTIMA, BMG Labtech) at 30° C. The kinetic parameters were determined at least in duplicates on separate days. The excitation/emission wavelength was 340/420 nm. The kinetic data was evaluated using GRAFIT software (version 7.0.3, Erithacus Software).

hMeprin β = target: T2, hMeprin β (Homo sapiens, UniProt Q16820); test: as above; format: biochemical; conditions: geometric mean (geometric SD factor in parentheses); for Ki: Morrison's equation, read-out: Meprin beta Ki(app); for IC50: read-out: Meprin beta IC50
T2 sequence (Q16820 62-701): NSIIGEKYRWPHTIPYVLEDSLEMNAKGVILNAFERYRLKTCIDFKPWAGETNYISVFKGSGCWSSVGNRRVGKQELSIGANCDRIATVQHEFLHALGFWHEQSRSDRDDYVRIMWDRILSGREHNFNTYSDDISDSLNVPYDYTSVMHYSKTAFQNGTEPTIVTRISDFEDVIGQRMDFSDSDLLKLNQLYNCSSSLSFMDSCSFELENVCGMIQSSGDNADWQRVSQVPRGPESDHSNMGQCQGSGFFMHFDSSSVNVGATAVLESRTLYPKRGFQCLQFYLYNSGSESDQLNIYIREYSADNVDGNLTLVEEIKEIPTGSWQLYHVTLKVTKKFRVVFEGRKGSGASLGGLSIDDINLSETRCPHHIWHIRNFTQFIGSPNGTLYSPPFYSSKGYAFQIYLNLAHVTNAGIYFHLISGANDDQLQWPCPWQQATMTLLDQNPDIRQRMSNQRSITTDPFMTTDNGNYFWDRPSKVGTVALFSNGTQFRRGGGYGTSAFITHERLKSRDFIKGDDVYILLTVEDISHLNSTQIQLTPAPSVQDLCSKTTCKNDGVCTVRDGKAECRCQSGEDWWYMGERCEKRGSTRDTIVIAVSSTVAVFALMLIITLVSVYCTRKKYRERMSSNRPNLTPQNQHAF
Experimental: as §1, §2

SMILES | Ki (hMeprin α) | IC50 (hMeprin α) | Ki (hMeprin β) | IC50 (hMeprin β)
COc1ccc(-c2nc3ccccc3n2CC(=O)NO)cc1 [Example 15, 2-[2-(4-Methoxyphenyl)benzimidazol-1-yl]ethanehydroxamic acid] | 94 nM | 95 nM | 252 nM | 257 nM
O=C(Cn1c(-c2ccccc2C(=O)O)nc2ccccc21)NO [Example 17, 2-[1-[2-(Hydroxyamino)-2-oxo-ethyl]benzimidazol-2-yl]benzoic acid] | 1390 nM | 1430 nM | 13200 nM | 13700 nM
O=C(Cn1c(-c2cccc(C(=O)O)c2)nc2ccccc21)NO [Example 18, 3-[1-[2-(Hydroxyamino)-2-oxo-ethyl]benzimidazol-2-yl]benzoic acid] | 62 nM | 63 nM | 160 nM | 164 nM
O=C(Cn1c(-c2ccc(C(=O)O)cc2)nc2ccccc21)NO [Example 19, 4-[1-[2-(Hydroxyamino)-2-oxo-ethyl]benzimidazol-2-yl]benzoic acid] | 71 nM | 75 nM | 119 nM | 127 nM
O=C(Cn1c(-c2ccc(Cl)c(O)c2F)nc2c(C(=O)O)cccc21)NO [Example 20, 2-(4-Chloro-2-fluoro-3-hydroxy-phenyl)-1-[2-(hydroxyamino)-2-oxo-ethyl]benzimidazole-4-carboxylic acid] | 903 nM | 908 nM | 1160 nM | 1190 nM
O=C(Cn1c(-c2ccc(Cl)c(O)c2F)nc2cc(C(=O)O)ccc21)NO [Example 21, 2-(4-Chloro-2-fluoro-3-hydroxy-phenyl)-1-[2-(hydroxyamino)-2-oxo-ethyl]benzimidazole-5-carboxylic acid] | 435 nM | 443 nM | 119 nM | 125 nM
O=C(Cn1c(-c2ccc(Cl)c(O)c2F)nc2ccc(C(=O)O)cc21)NO [Example 22, 2-(4-Chloro-2-fluoro-3-hydroxy-phenyl)-3-[2-(hydroxyamino)-2-oxo-ethyl]benzimidazole-5-carboxylic acid] | 6 nM | 6 nM | 7 nM | 8 nM
Cc1n[nH]c(-c2ccccc2)c1CC(=O)NO [Example 44, 2-(3-Methyl-5-phenyl-1H-pyrazol-4-yl)ethanehydroxamic acid] | 302 nM | 310 nM | 2110 nM | 2170 nM
O=C(Cc1c(C2CCCC2)n[nH]c1-c1ccccc1)NO [Example 45, 2-(3-Cyclopentyl-5-phenyl-1H-pyrazol-4-yl)ethanehydroxamic acid] | 6 nM | 6 nM | 320 nM | 327 nM
O=C(Cc1c(Cc2ccccc2)n[nH]c1-c1ccccc1)NO [Example 46, 2-(3-Benzyl-5-phenyl-1H-pyrazol-4-yl)ethanehydroxamic acid] | 70 nM | 71 nM | 1730 nM | 1780 nM
COc1ccc(-c2n[nH]c(-c3ccccc3)c2CC(=O)NO)cc1 [Example 48, 2-[3-(4-Methoxyphenyl)-5-phenyl-1H-pyrazol-4-yl]ethanehydroxamic acid] | 1 nM | 1 nM | 62 nM | 64 nM
O=C(Cc1c(-c2cccc(C(=O)O)c2)n[nH]c1-c1ccccc1)NO [Example 51, 3-[4-[2-(Hydroxyamino)-2-oxo-ethyl]-5-phenyl-1H-pyrazol-3-yl]benzoic acid] | 8 nM | 8 nM | 47 nM | 52 nM
O=C(Cc1c(-c2ccc(C(=O)O)cc2)n[nH]c1-c1ccccc1)NO [Example 52, 4-[4-[2-(Hydroxyamino)-2-oxo-ethyl]-5-phenyl-1H-pyrazol-3-yl]benzoic acid] | 17 nM | 18 nM | 116 nM | 130 nM
O=C(Cc1c(-c2ccc(Cl)c(O)c2F)n[nH]c1-c1ccccc1)NO [Example 53, 2-[3-(4-Chloro-2-fluoro-3-hydroxy-phenyl)-5-phenyl-1H-pyrazol-4-yl]ethanehydroxamic acid] | 2 nM | 3 nM | 61 nM | 61 nM
N#Cc1cccc(-c2n[nH]c(-c3ccccc3)c2CC(=O)NO)c1 [Example 55, 2-[3-(3-Cyanophenyl)-5-phenyl-1H-pyrazol-4-yl]ethanehydroxamic acid] | 5 nM | 5 nM | 335 nM | 346 nM
N#Cc1ccc(-c2n[nH]c(-c3ccccc3)c2CC(=O)NO)cc1 [Example 56, 2-[3-(4-Cyanophenyl)-5-phenyl-1H-pyrazol-4-yl]ethanehydroxamic acid] | 14 nM | 14 nM | 995 nM | 1020 nM
O=C(Cc1c(-c2cccc(C(=O)O)c2)n[nH]c1-c1cccc(C(=O)O)c1)NO [Example 58, 3-[3-(3-Carboxyphenyl)-4-[2-(hydroxyamino)-2-oxo-ethyl]-1H-pyrazol-5-yl]benzoic acid] | 10 nM | 11 nM | 14 nM | 17 nM
O=C(Cc1c(-c2ccc(C(=O)O)cc2)n[nH]c1-c1ccc(C(=O)O)cc1)NO [Example 59, 4-[3-(4-Carboxyphenyl)-4-[2-(hydroxyamino)-2-oxo-ethyl]-1H-pyrazol-5-yl]benzoic acid] | 56 nM | 56 nM | 116 nM | 128 nM
O=C(Cc1c(-c2ccc(Cl)c(O)c2F)n[nH]c1-c1ccc(Cl)c(O)c1F)NO [Example 60, 2-[3,5-Bis(4-chloro-2-fluoro-3-hydroxy-phenyl)-1H-pyrazol-4-yl]ethanehydroxamic acid] | 4 nM | 4 nM | 14 nM | 14 nM
O=C(Cc1c(-c2ccc3c(c2)OCO3)n[nH]c1-c1cccc(C(=O)O)c1)NO [Example 61, 3-[3-(1,3-Benzodioxol-5-yl)-4-[2-(hydroxyamino)-2-oxo-ethyl]-1H-pyrazol-5-yl)benzoic acid] | 3 nM | 3 nM | 44 nM | 45 nM
O=C(Cc1c(-c2ccc3c(c2)OCO3)n[nH]c1-c1ccc(C(=O)O)cc1)NO [Example 62, 4-[3-(1,3-Benzodioxol-5-yl)-4-[2-(hydroxyamino)-2-oxo-ethyl]-1H-pyrazol-5-yl)benzoic acid] | 10 nM | 11 nM | 93 nM | 94 nM
O=C(Cc1c(-c2cccc(C(=O)O)c2)n[nH]c1-c1cc(F)c(O)c(Cl)c1)NO [Example 64, 3-[5-(3-Chloro-5-fluoro-4-hydroxy-phenyl)-4-[2-(hydroxyamino)-2-oxo-ethyl]-1H-pyrazol-3-yl]benzoic acid] | 0.14 nM | 0.24 nM | 0.24 nM | 0.26 nM
O=C(Cc1c(-c2ccc(C(=O)O)cc2)n[nH]c1-c1ccc(Cl)c(O)c1F)NO [Example 65, 4-[5-(4-Chloro-2-fluoro-3-hydroxy-phenyl)-4-[2-(hydroxyamino)-2-oxo-ethyl]-1H-pyrazol-3-yl]benzoic acid] | 10 nM | 10 nM | 11 nM | 12 nM

— patent US20250388544A1, “HETEROAROMATIC INHIBITORS OF ASTACIN PROTEINASES” (VIVORYON THERAPEUTICS N.V., priority 2019, published 2025)
